Experimental findings from patent publication US8895574B2, “Benzyloxypyrimidine derivative, agricultural/ horticultural insecticide comprising derivative and method for using same” (Nihon Nohyaku Co., Ltd., priority 2010, dated 2014) are described below.

The test system of the assay is cattle tick (Haemaphysalis longicornis). Kind of assay: Acaricidal effect on cattle tick, absorbent cotton in glass bottle. It counts as in vivo. The following applies: 96 h, 100 ppm drug solution, 2 ml, 4 days after inoculation, read-out: acaricidal effect against cattle tick (corrected mortality, judged by criterion). As for the experimental part: Acaricidal Effect on Cattle Tick (Haemaphysalis longicornis)
An absorbent cotton was placed on the basement of a glass bottle (diameter 3 cm×height 4.5 cm). The pyrimidine derivative of the present invention represented by the formula (I) or a salt thereof was dispersed in water to give a diluted drug solution (100 ppm). The drug solution (2 ml) was added dropwise. Cattle ticks were inoculated by 5 each, and the bottle was capped with a mesh. After 4 days from the inoculation, the dead ticks and live ticks were counted, and the corrected mortality was calculated by the following formula. corrected mortality (%)=(survival rate in untreated group−survival rate in treated group)/(survival rate in untreated group)×100 Diagnostic criteria . . . as defined in Experimental Example 1

The mortality is the share of the test organisms that died. For `COc1cncnc1OCc1ccc(C(C)(C)C)cc1` [1-1, 4-(4-t-butylbenzyloxy)-5-methoxypyrimidine], the mortality at 100 ppm lay in the range of 50 to 79%.
